Results published in patent US8362065B2, “Carbazole carboxamide compounds useful as kinase inhibitors” (Bristol-Myers Squibb Company, priority 2008, dated 2013).
Counter-ions that a name gives are not always drawn.

molecular target: T1, human recombinant Btk (Homo sapiens, UniProt Q06187); assay: Human Recombinant Btk Enzyme Assay; assay type: biochemical; conditions: human recombinant Btk 1 nM, ATP 20 μM, 60 min at room temperature; read-out: IC50 for Inhibition of Btk
T1 construct: purchased Invitrogen Corporation
T1 sequence (Q06187 whole entry): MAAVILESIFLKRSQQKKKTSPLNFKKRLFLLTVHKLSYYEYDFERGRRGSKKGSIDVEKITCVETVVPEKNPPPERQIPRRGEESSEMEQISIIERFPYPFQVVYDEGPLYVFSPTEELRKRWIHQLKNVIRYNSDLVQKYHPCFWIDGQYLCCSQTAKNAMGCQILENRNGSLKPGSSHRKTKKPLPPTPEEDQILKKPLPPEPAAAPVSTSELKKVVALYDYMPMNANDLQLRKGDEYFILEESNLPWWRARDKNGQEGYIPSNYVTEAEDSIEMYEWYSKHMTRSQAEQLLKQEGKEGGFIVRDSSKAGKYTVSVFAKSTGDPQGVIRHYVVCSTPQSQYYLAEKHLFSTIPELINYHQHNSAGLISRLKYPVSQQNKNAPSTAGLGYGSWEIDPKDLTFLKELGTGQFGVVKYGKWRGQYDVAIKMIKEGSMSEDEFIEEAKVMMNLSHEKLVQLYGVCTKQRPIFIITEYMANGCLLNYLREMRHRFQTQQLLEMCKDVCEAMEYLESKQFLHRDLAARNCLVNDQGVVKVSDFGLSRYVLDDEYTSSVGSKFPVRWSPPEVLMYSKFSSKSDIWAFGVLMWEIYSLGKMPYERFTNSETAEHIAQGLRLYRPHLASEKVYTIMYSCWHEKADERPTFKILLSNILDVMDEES

| Molecule | IC50 [nM] |
| --- | --- |
| CN1CCN(C(=O)c2ccc3c(c2)[nH]c2c(C(N)=O)ccc(-c4cc(Cl)ccc4F)c23)CC1 [Example 2-13, 4-(5-chloro-2-fluorophenyl)-7-(4-methylpiperazine-1-carbonyl)-9H-carbazole-1-carboxamide] | 15 |
| Cc1c(NC(=O)c2ccc(S(N)(=O)=O)cc2)cccc1-c1ccc(C(N)=O)c2[nH]c3cc(C(=O)N4CCN(C)CC4)ccc3c12 [Example 5-69, 4-(2-methyl-3-(4-sulfamoylbenzamido)phenyl)-7-(4-methylpiperazine-1-carbonyl)-9H-carbazole-1-carboxamide (prepared as the TFA salt)] | 2 |
| CCNC(=O)c1cc2c(-c3ccc(C(N)=O)c4[nH]c5cc(C(=O)N6CCN(C)CC6)ccc5c34)cccc2[nH]1 [Example 2-24, 4-(2-(ethylcarbamoyl)-1H-indol-4-yl)-7-(4-methylpiperazine-1-carbonyl)-9H-carbazole-1-carboxamide] | 800 |
| CN1CCN(C(=O)c2ccc3c(c2)[nH]c2c(C(N)=O)ccc(-c4cccc5[nH]c(C(=O)N6CCCC6)cc45)c23)CC1 [Example 3-75] | 920 |
| Cc1c(NC(=O)C2(C#N)CC2)cccc1-c1ccc(C(N)=O)c2[nH]c3cc(C(=O)N4CCN(C)CC4)ccc3c12 [Example 5-73, 4-(3-(1-cyanocyclopropanecarboxamido)-2-methylphenyl)-7-(4-methylpiperazine-1-carbonyl)-9H-carbazole-1-carboxamide (prepared as the TFA salt)] | 18 |
| CCOc1ccc2ccccc2c1-c1ccc(C(N)=O)c2[nH]c3cc(C(=O)N4CCN(C)CC4)ccc3c12 [Example 3-18] | 2700 |
| Cc1c(-c2ccc(C(N)=O)c3[nH]c4c(c23)CCC(C(=O)N(C)C2CCN(C)CC2)C4)cccc1N1Cc2ccc(C(F)(F)F)cc2C1=O (centres unmarked) [Example 3-130] | 2 |
| 7-(1,2-dihydroxyethyl)-4-(2-methyl-3-(6-methyl-1-oxoisoindolin-2-yl)phenyl)-9H-carbazole-1-carboxamide^[b] [Example 70-12] | 1.3 |
| CC(=O)Nc1ccc(F)c(-c2ccc(C(N)=O)c3[nH]c4cc(C(=O)N5CCN(C)CC5)ccc4c23)c1 [Example 2-35, 4-(5-acetamido-2-fluorophenyl)-7-(4-methylpiperazine-1-carbonyl)-9H-carbazole-1-carboxamide] | 16 |
| NC(=O)c1ccc(-c2ccccc2F)c2c1[nH]c1cc(C(=O)N3CCOCC3)ccc12 [Example 3-9, 4-(2-fluorophenyl)-7-(morpholine-4-carbonyl)-9H-carbazole-1-carboxamide] | 17 |
| CN1CCN(C(=O)c2ccc3c(c2)[nH]c2c(C(N)=O)ccc(-c4c[nH]c5cc(-c6ccc(F)cc6)ccc45)c23)CC1 [Example 3-83] | 940 |
| Cc1c(NC(=O)c2cccnc2)cccc1-c1ccc(C(N)=O)c2[nH]c3cc(C(=O)N4CCN(C)CC4)ccc3c12 [Example 5-7] | 18 |
| NC(=O)c1ccc(-c2cc(C(=O)O)ccc2F)c2c1[nH]c1cc(C(=O)N3CCOCC3)ccc12 [Example 2-16, 3-(1-carbamoyl-7-(morpholine-4-carbonyl)-9H-carbazol-4-yl)-4-fluorobenzoic acid] | 16 |
| Cc1c(NC(=O)c2ncc[nH]2)cccc1-c1ccc(C(N)=O)c2[nH]c3cc(C(=O)N4CCN(C)CC4)ccc3c12 [Example 5-9, 4-(3-(1H-imidazole-2-carboxamido)-2-methylphenyl)-7-(4-methylpiperazine-1-carbonyl)-9H-carbazole-1-carboxamide (prepared as the TFA salt)] | 1.9 |

Continued, values first:

| IC50 [nM] | Molecule |
| --- | --- |
| 410 | Cc1c(NC(=O)c2ccc(F)cc2)cccc1-c1ccc(C(N)=O)c2[nH]c3cc(C(=O)Nc4ccc(F)cc4)ccc3c12 [Example 24-34, 4-(3-(4-fluorobenzamido)-2-methylphenyl)-N^7-(4-fluorophenyl)-9H-carbazole-1,7-dicarboxamide (prepared as the TFA salt)] |
| 1300 | NC(=O)c1ccc(Br)c2c1[nH]c1cc(NC(=O)OCc3ccccc3)ccc12 [Example 50-3, benzyl 5-bromo-8-carbamoyl-9H-carbazol-2-ylcarbamate] |
| 16 | Cc1c(Nc2ncnc3cc(F)ccc23)cccc1-c1ccc(C(N)=O)c2[nH]c3cc(N4CCCC4=O)ccc3c12 [Example 79-4] |
| 16 | Cc1c(NC(=O)Nc2ccccc2)cccc1-c1ccc(C(N)=O)c2[nH]c3cc(C(=O)N4CCN(C)CC4)ccc3c12 [Example 8-3, 4-(2-methyl-3-(3-phenylureido)phenyl)-7-(4-methylpiperazine-1-carbonyl)-9H-carbazole-1-carboxamide] |
| 540 | CC(C)(O)C1CCc2c([nH]c3c(C(N)=O)ccc(Br)c23)C1 (centres unmarked) [Example 73-1, 5-bromo-2-(2-hydroxypropan-2-yl)-2,3,4,9-tetrahydro-1H-carbazole-8-carboxamide] |
| 1.6 | Cc1c(NC(=O)c2nccn2C)cccc1-c1ccc(C(N)=O)c2[nH]c3cc(C(O)CO)ccc3c12 (centres unmarked) [Example 78-2] |
| 17 | Cc1c(NS(=O)(=O)CCCCl)cccc1-c1ccc(C(N)=O)c2[nH]c3cc(C(=O)N4CCN(C)CC4)ccc3c12 [Example 10-4, 4-(3-(3-chloropropylsulfonamido)-2-methylphenyl)-7-(4-methylpiperazine-1-carbonyl)-9H-carbazole-1-carboxamide] |
| 2 | Cc1ccc2c(c1)C(=O)N(c1cccc(-c3ccc(C(N)=O)c4[nH]c5cc(N6CCCC6=O)ccc5c34)c1C)C2 [Example 66-16] |
| 17 | CN1CCN(C(=O)c2ccc3c(c2)[nH]c2c(C(N)=O)ccc(N4CCC[C@@H](NC(=O)Nc5nccs5)C4)c23)CC1 [Example 19-1, (R)-7-(4-methylpiperazine-1-carbonyl)-4-(3-(3-thiazol-2-ylureido)piperidin-1-yl)-9H-carbazole-1-carboxamide] |
| 2.2 | Cc1c(-c2ccc(C(N)=O)c3[nH]c4cc(NCC(O)CO)ccc4c23)cccc1N1Cc2ccccc2C1=O (centres unmarked) [Example 67-1, 7-(2,3-dihydroxypropylamino)-4-(2-methyl-3-(1-oxoisoindolin-2-yl)phenyl)-9H-carbazole-1-carboxamide] |
| 520 | Cc1c(NC(=O)c2ccccn2)cccc1-c1ccc(C(N)=O)c2[nH]c3c(c12)CCC(NC(=O)OCc1ccccc1)C3 (centres unmarked) [Example 52-2, benzyl 8-carbamoyl-5-(2-methyl-3-(picolinamido)phenyl)-2,3,4,9-tetrahydro-1H-carbazol-2-ylcarbamate] |
| 1600 | Cc1c(-c2ccc(C(N)=O)c3[nH]c4cc(NC(=O)OCc5ccccc5)ccc4c23)cccc1N1Cc2cc(C(C)(C)C)ccc2C1=O [Example 51-4, benzyl 5-(3-(5-tert-butyl-1-oxoisoindolin-2-yl)-2-methylphenyl)-8-carbamoyl-9H-carbazol-2-ylcarbamate] |
| 520 | Cc1c(NC(=O)c2ccc(F)cn2)cccc1-c1ccc(C(N)=O)c2[nH]c3cc(NC(=O)OCc4ccccc4)ccc3c12 [Example 52-1, benzyl 8-carbamoyl-5-(3-(5-fluoropicolinamido)-2-methylphenyl)-9H-carbazol-2-ylcarbamate] |
| 400 | Cc1c(N)cccc1-c1ccc(C(N)=O)c2[nH]c3c(c12)CCC(NC(=O)OCc1ccccc1)C3 (centres unmarked) [Example 51-1, benzyl 5-(3-amino-2-methylphenyl)-8-carbamoyl-2,3,4,9-tetrahydro-1H-carbazol-2-ylcarbamate] |
| 18 | Cc1c(-c2ccc(C(N)=O)c3[nH]c4c(c23)CCC(C(C)(C)O)C4)cccc1N1Cc2ccc(C(F)(F)F)cc2C1=O (centres unmarked) [Example 76-44] |
| 2.2 | Cc1c(NC(=O)c2ccc(F)cc2)cccc1-c1ccc(C(N)=O)c2[nH]c3cc(NC4CCN(C)CC4)ccc3c12 [Example 61-2] |
| 1.6 | Cc1ccc2c(c1)C(=O)N(c1cccc(-c3ccc(C(N)=O)c4[nH]c5cc(C(O)CO)ccc5c34)c1C)C2 (racemic) [Example 70-5, 7-((RS)-1,2-dihydroxyethyl)-4-(2-methyl-3-(6-methyl-1-oxoisoindolin-2-yl)phenyl)-9H-carbazole-1-carboxamide] |
| 1.8 | Cc1c(NC(=O)c2ccc(F)cc2)cccc1-c1ccc(C(N)=O)c2[nH]c3cc(NC(=O)CN)ccc3c12 [Example 57-37] |
| 18 | Cc1c(-c2ccc(C(N)=O)c3[nH]c4c(c23)CCC(C(C)(C)O)C4)cccc1-n1cnc2cccc(F)c2c1=O (centres unmarked) [Example 76-41] |
| 15 | Cc1c(NC(=O)c2ccc(F)cc2)cccc1-c1ccc(C(N)=O)c2[nH]c3cc(NC(=O)Cc4ccncc4)ccc3c12 [Example 57-13] |
| 2.3 | Cc1c(-c2ccc(C(N)=O)c3[nH]c4cc(C(O)CO)ccc4c23)cccc1N1Cc2ccccc2C1=O (racemic) [Example 70-3, 7-((RS)-1,2-dihydroxyethyl)-4-(2-methyl-3-(1-oxoisoindolin-2-yl)phenyl)-9H-carbazole-1-carboxamide] |
| 1.5 | Cc1c(-c2ccc(C(N)=O)c3[nH]c4cc(C(O)CO)ccc4c23)cccc1N1Cc2ccc(F)cc2C1=O (centres unmarked) [Example 70-9] |
| 4900 | Cc1c(-c2ccc(C(N)=O)c3[nH]c4cc(C(=O)N5CCN(C)CC5)ccc4c23)cccc1N(C(C)C)S(C)(=O)=O (single isomer, unassigned) [Example 10-3, 4-(3-(N-isopropylmethylsulfonamido)-2-methylphenyl)-7-(4-methylpiperazine-1-carbonyl)-9H-carbazole-1-carboxamide] |
| 470 | COc1cccc(NC(=O)c2ccc3c(c2)[nH]c2c(C(N)=O)ccc(-c4cccc(NC(=O)c5ccc(F)cc5)c4C)c23)c1 [Example 24-33, 4-(3-(4-fluorobenzamido)-2-methylphenyl)-N^7-(3-methoxyphenyl)-9H-carbazole-1,7-dicarboxamide (prepared as the TFA salt)] |
| 16.9 | Cc1ccc2c(Nc3cccc(-c4ccc(C(N)=O)c5[nH]c6cc(N7CCCC7=O)ccc6c45)c3C)ncnc2c1 [Example 79-2] |
| 17 | Cc1c(NC(=O)c2ccc(F)cc2)cccc1-c1ccc(C(N)=O)c2[nH]c3cc(C(N)=O)ccc3c12 [Example 24-1, 4-(3-(4-fluorobenzamido)-2-methylphenyl)-9H-carbazole-1,7-dicarboxamide] |
| 15 | Cc1c(Nc2ncnc3ccc(F)cc23)cccc1-c1ccc(C(N)=O)c2[nH]c3cc(N4CCCC4=O)ccc3c12 [Example 79-3] |
